Laboratory results published in patent publication US11725015B2, “Macrocyclic compound and uses thereof” (President and Fellows of Harvard College, priority 2017, dated 2023).

What was measured:
[1] = test system: MES-SA (human uterine sarcoma); assay: In vitro antiproliferative activity, MES-SA; type: cell-based; settings: 72 hours
Description: The in vitro antiproliferative assays for Compound (1) were conducted using a small panel of cancer cell lines including human squamous cell carcinoma of the esophagus (OE21, TE-8), human adenocarcinoma of the esophagus (OE33), and human uterine sarcoma (MES-SA, MES-SA-Dx5-Rx1). All cell lines were cultured in RPMI-1640 medium containing 10% FBS, and penicillin-streptomycin (culture medium), in a 5% CO2 incubator (37° C.). To each well of a 96 well plate (Becton, Dickinson and Company, 353219), 75 μL of cell suspension adjusted to a concentration of 4×10^4 cells/mL with the culture medium was added, and the cells were incubated overnight in a 5% CO2 incubator (37° C.). On the next day, 25 μL of Compound (1) in three-fold dilution series suspended in the culture medium was added to each well, and the resultant was incubated for 72 hours in a 5% CO2 incubator (37° C.). Then, cell viability was determined by CellTiter-Glo® Luminescent Cell Viability Assay (Promega) with 2013 EnVision™ Multilabel Reader (Perkin-Elmer, Wellesley, Mass.). Value of the wells containing cells without adding the test compounds was defined as 100% and the value of the wells containing no cells was defined as 0%. […] The P-gp susceptibility was calculated as the ratio of the IC50 value in MES-SA-Dx5-Rx1 cells, which overexpress P-gp, to the IC50 value in MES-SA cells.

[2] = test system: α-SMA-positive CAFs in the FaDu subcutaneous model; assay: Effect on α-SMA-positive CAFs in the FaDu subcutaneous model in mice (Test Example 19); type: in vivo
Description: A human squamous cell carcinoma of the head and neck (SCCHN) cell line FaDu, which had been cultured in an RPMI-1640 medium containing 10% FBS, and penicillin-streptomycin (culture medium), was adjusted to a concentration of 5×10^7 cells/mL with culture medium to prepare a cell suspension. The cell suspension was inoculated in a volume of 100 μL into a subcutaneous part of a right flank of nude mice, 6 weeks of ages (CAnN.Cg-Foxnlnu/CrlCrlj, female, Charles River Laboratories Japan, Inc.). Ten days after cell inoculation, the mice were grouped such that averages of the tumor volumes were substantially equal among the groups. The experiment was conducted on groups each consisting of 5 mice. Each test compound was dissolved in DMSO and a solution was stored in the freezer before use. Immediately before the administration, the stock solution was diluted with saline. The test compound in saline was intravenously administered at 20 μg/kg, […]. Two days or 5 days after the single administration, tumor samples were collected and fixed with IHC Zinc Fixative (BD Pharmingen) at 4° C. for 24 hours. Paraffin-embedded tissues were sectioned (3 μm), mounted on positively charged slides, and air-dried. Sections were deparaffinized, conditioned and the antigens were retrieved using microwave with 1 mM EDTA at pH 6.0. Sections were blocked with 1% of BSA in TBS. Mouse anti-α-SMA monoclonal antibody conjugated with alkaline phosphatase (clone 1A4, Sigma) was applied at 5 μg/mL. Sections were incubated with the antibody for 2.5 hr. […] The area of α-SMA-positive region in the whole tumor was quantified by counting the α-SMA-positive objects using inform 2 software (PerkinElmer Inc.) Area of the tumor region was measured by assessing the hematoxylin-staining area using inform 2 software (PerkinElmer Inc.). […] A suppression rate of the α-SMA-positive area of the test compound-dosing group was calculated with the below formula: α-SMA ratio=α-SMA area of the test compound-dosing group/α-SMA area of the non-treat group

[3] = test system: MES-SA (human uterine sarcoma) xenograft; assay: Antitumor effects in MES-SA soft tissue sarcoma xenograft model in mice as monotherapy; type: in vivo; settings: 180 μg/kg intravenously on Day 1 and Day 8
Description: A human uterine sarcoma cell line MES-SA, which had been cultured in an RPMI-1640 containing 10% FBS, and penicillin-streptomycin, was adjusted to a concentration of 2×10^8 cells/mL with Hanks' Balanced Salt Solution to prepare a cell suspension, and the suspension was mixed with Geltrex® (Thermo Fisher Scientific Inc., #A1413202) in a ratio of 1:1 to prepare a cell suspension in a concentration of 1×10^8 cells/mL. The cell suspension was inoculated in a volume of 100 μL into a subcutaneous part of a right flank of nude mice, 6 weeks of ages (CAnN.Cg-Foxnlnu/CrlCrlj, female, Charles River Laboratories Japan Inc.). Six days after cell inoculation (Day 1), the shortest diameter and the longest diameter of a tumor in each mouse were measured by using an electronic digital caliper (Digimatic™ caliper, Mitutoyo Corporation), so as to calculate the volume of the tumor in accordance with the following calculation formulae: Tumor volume (mm^3)=Longest diameter (mm)×Shortest diameter (mm)×Shortest diameter (mm)/2 Relative tumor volume (RTV)=Tumor volume (day X)/Tumor volume (the first day)
On the basis of the volumes of tumors obtained on Day 1, the mice were grouped such that averages of the tumor volumes were substantially equal among the groups. The experiment was conducted on groups each consisting of 6 mice. […]

**Q.** For `C=C1C[C@@H]2CC[C@@]34C[C@H]5O[C@H]6[C@@H](O3)[C@H]3O[C@H](CC[C@@H]3O[C@H]6C5O4)CC(=O)O[C@@H]3[C@@H](C)[C@@H]4O[C@@H]5C[C@]6(C[C@@H]7O[C@]8(C[C@H](C)[C@@H]9O[C@H](CN)[C@H](O)C[C@@H]9O8)C[C@H](C)[C@@H]7O6)O[C@@H]5C[C@@H]4O[C@H]3C[C@H]3O[C@@H](CC[C@@H]1O2)C[C@@H](C)C3=C` [Compound (1)], which antiproliferative activity [1] is on record?
**A.** potent antiproliferative agent

**Q.** What about the α-SMA positive area ([2]; single administration 180 μg/kg, Day 3) of the same molecule?
**A.** significantly reduced the α-SMA positive area

**Q.** And the α-SMA positive area ([2]; single administration 180 μg/kg, Day 6)?
**A.** significantly reduced the α-SMA positive area

**Q.** And the α-SMA positive area ([2]; single administration 60 m/kg, Day 3)?
**A.** significantly reduced the α-SMA positive area

**Q.** And the antitumor activity [3]?
**A.** tumor growth delay
